Data published in the supplement of paper PMC10307832.

Columns and labels:
Assay in all cases: relative viability (nuclei count vs DMSO), 5 days (fraction); higher = more cells survive
[1] = compound: CC(C)C[C@@H](C(=O)N[C@H](C(=O)OC1CCCC1)c1ccccc1)[C@H](O)C(=O)NO [Tosedostat] + CC(=O)Nc1cccc(-n2c(=O)n(C3CC3)c(=O)c3c(Nc4ccc(I)cc4F)n(C)c(=O)c(C)c32)c1 [Trametinib] (partner 0.02 µM)
In short: (§1)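 Each reported value is a median over duplicate plates. It expresses relative viability: treated-well nuclei count divided by vehicle-well nuclei count. Lung cancer cell lines in 1536-well plates were dosed by pin tool a day after seeding, alone with one drug or with a fixed anchor-drug dose plus five library-drug doses (not always all listed) in √10 steps, and nuclei were counted after 5 days.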

[2] = compound: CC(C)C[C@@H](C(=O)N[C@H](C(=O)OC1CCCC1)c1ccccc1)[C@H](O)C(=O)NO [Tosedostat] + CC(=O)c1c(C)c2cnc(Nc3ccc(N4CCNCC4)cn3)nc2n(C2CCCC2)c1=O [Palbociclib] (partner 0.5 µM)
In short: as §1

[3] = compound: CC(C)C[C@@H](C(=O)N[C@H](C(=O)OC1CCCC1)c1ccccc1)[C@H](O)C(=O)NO [Tosedostat] + CC1(C)CCC(c2ccc(Cl)cc2)=C(CN2CCN(c3ccc(C(=O)NS(=O)(=O)c4ccc(N[C@H](CCN5CCOCC5)CSc5ccccc5)c(S(=O)(=O)C(F)(F)F)c4)cc3)CC2)C1 [Navitoclax] (partner 0.5 µM)
In short: as §1

[4] = compound: CC(C)C[C@@H](C(=O)N[C@H](C(=O)OC1CCCC1)c1ccccc1)[C@H](O)C(=O)NO [Tosedostat] + C[C@]1(O)C[C@@H](c2nc(-c3ccc4ccc(-c5ccccc5)nc4c3)c3c(N)nccn32)C1 [Linsitinib] (partner 1 µM)
In short: as §1

Cell Line	relative viability ([1]; first compound 0.02 µM)	relative viability ([1]; first compound 0.06325 µM)	relative viability ([1]; first compound 0.2 µM)	relative viability ([1]; first compound 0.6325 µM)	relative viability ([1]; first compound 2 µM)	relative viability ([2]; first compound 0.02 µM)	relative viability ([2]; first compound 0.06325 µM)	relative viability ([2]; first compound 0.2 µM)	relative viability ([2]; first compound 0.6325 µM)	relative viability ([2]; first compound 2 µM)	relative viability ([3]; first compound 0.02 µM)	relative viability ([3]; first compound 0.06325 µM)	relative viability ([3]; first compound 0.2 µM)	relative viability ([3]; first compound 0.6325 µM)	relative viability ([3]; first compound 2 µM)	relative viability ([4]; first compound 0.02 µM)	relative viability ([4]; first compound 0.06325 µM)	relative viability ([4]; first compound 0.2 µM)	relative viability ([4]; first compound 0.6325 µM)	relative viability ([4]; first compound 2 µM)
201T	0.673	0.743	0.732	0.745	0.781	0.362	0.367	0.372	0.38	0.377	1.19	1.24	1.29	1.32	1.28	0.99	1.09	1.11	1.21	1.17
A549											1.37	1.15	1.14	1.19	1.01	0.663	0.621	0.562	0.532	0.608
A-427	0.789	0.748	0.818	0.719	0.701	0.501	0.514	0.55	0.494	0.507	0.921	0.925	0.999	1.03	0.925	1.14	1.12	1.03	1.07	1.09
ABC-1						0.826	0.706	0.704	0.576	0.531						0.95	0.868	0.854	0.773	0.626
BEN	1.17	1	1.09	1.21	1.38	0.454	0.463	0.537	0.497	0.465	0.35	0.0546	0.0614	0.0633	0.0537	0.986	0.921	0.989	1.14	1.06
CAL-12T	0.393	0.364	0.339	0.394	0.325	0.468	0.362	0.312	0.299	0.397	1.27	1.13	1.19	1.16	0.965	0.728	0.762	0.739	0.709	0.642
COR-L23	0.698	0.594	0.587	0.491	0.508	0.389	0.357	0.338	0.277	0.288	1.2	1.04	1.04	0.884	0.958	1.1	0.805	0.827	0.869	0.877
COR-L 105	0.493	0.431	0.422	0.476	0.369	0.402	0.43	0.398	0.357	0.392	0.673	0.624	0.707	0.722	0.512	0.841	0.876	0.778	0.662	0.653
Calu-6											0.919	0.787	0.655	0.668	0.461	0.979	0.942	0.907	0.848	0.647
ChaGo-K-1	0.903	0.862	0.895	0.867	0.645	1.01	0.907	0.87	0.858	0.671	1.23	1.1	0.905	1.01	0.761					
EBC-1											0.42	0.473	0.423	0.356	0.305	0.843	0.808	0.977	0.581	0.585
EKVX	0.229	0.338	0.433	0.373	0.292	0.368	0.374	0.403	0.396	0.389	0.962	0.969	0.898	0.944	0.804	0.935	1.01	1.03	0.932	1.08
EMC-BAC-2	0.942	0.849	0.83	0.727	0.675	0.516	0.522	0.536	0.484	0.489	1.11	1.2	1.15	1.14	1.19	0.822	0.792	0.794	0.837	0.82
EPLC-272H	0.29	0.296	0.305	0.324	0.25	0.337	0.311	0.348	0.303	0.248	1.19	1.3	0.826	0.775	0.576	1.06	1.25	0.92	0.855	0.712
H3255	0.61	0.582	0.528	0.608	0.599	0.303	0.32	0.342	0.331	0.319	0.464	0.546	0.404	0.388	0.471	0.94	0.949	0.917	0.984	0.988
HARA	0.85	0.636	0.91	0.745	0.631	0.325	0.255	0.262	0.232	0.265	1.17	1.2	1.1	0.894	1.15	0.915	0.8	0.876	0.969	0.857
HCC-15	0.394	0.353	0.408	0.363	0.305	0.759	0.688	0.572	0.708	0.653	0.772	0.729	0.684	0.659	0.57	0.826	0.876	0.848	0.831	0.672
HCC-44	1.21	1.11	1.09	1.13	1.17	1.05	0.982	1.01	0.983	0.928	0.849	0.912	0.949	0.946	0.539	0.59	0.656	0.688	0.681	0.473
HCC-78	0.729	0.722	0.664	0.795	0.659	0.502	0.46	0.41	0.486	0.495	0.717	0.808	0.736	0.868	0.948	0.397	0.608	0.429	0.458	0.573
HCC-366	0.36	0.358	0.322	0.311	0.374	0.389	0.43	0.372	0.391	0.369	1.15	1.01	1.02	1.01	1.11	0.59	0.77	0.721	0.457	0.602

Cell Line	relative viability ([1]; first compound 0.02 µM)	relative viability ([1]; first compound 0.06325 µM)	relative viability ([1]; first compound 0.2 µM)	relative viability ([1]; first compound 0.6325 µM)	relative viability ([1]; first compound 2 µM)	relative viability ([2]; first compound 0.02 µM)	relative viability ([2]; first compound 0.06325 µM)	relative viability ([2]; first compound 0.2 µM)	relative viability ([2]; first compound 0.6325 µM)	relative viability ([2]; first compound 2 µM)	relative viability ([3]; first compound 0.02 µM)	relative viability ([3]; first compound 0.06325 µM)	relative viability ([3]; first compound 0.2 µM)	relative viability ([3]; first compound 0.6325 µM)	relative viability ([3]; first compound 2 µM)	relative viability ([4]; first compound 0.02 µM)	relative viability ([4]; first compound 0.06325 µM)	relative viability ([4]; first compound 0.2 µM)	relative viability ([4]; first compound 0.6325 µM)	relative viability ([4]; first compound 2 µM)
HCC-827	0.545	0.571	0.552	0.505	0.518	0.421	0.536	0.505	0.466	0.502	1.01	1.03	1.06	1.03	0.86	0.966	0.934	0.976	0.857	0.909
HOP-62	0.41	0.442	0.404	0.495	0.451	0.478	0.467	0.463	0.462	0.439	1.19	1	1.01	1.02	0.914	1.07	0.977	0.849	0.693	0.712
IA-LM											0.731	0.655	0.875	0.585	0.603	0.688	0.596	0.463	0.445	0.474
LC-2-ad	0.971	0.893	0.885	0.917	0.967	0.49	0.496	0.525	0.446	0.529	0.614	0.419	0.473	0.386	0.264	0.865	0.743	0.866	0.823	0.805
LCLC-97TM1	0.19	0.202	0.232	0.177	0.161	0.227	0.184	0.185	0.221	0.194	0.559			0.633	0.293	0.181			0.205	0.167
LCLC-103H	0.678	0.682	0.713	0.721	0.779	0.447	0.483	0.456	0.504	0.486						1.29	1.08	1.06	1.18	1.36
LK-2	0.903	0.819	0.614	0.628	0.78	0.768	0.702	0.721	0.739	0.909	0.905	0.855	0.788	0.909	0.976	0.883	0.465	0.562	0.743	0.913
NCI-H358	0.144	0.126	0.13	0.113	0.133	0.141	0.134	0.131	0.137	0.136						0.944	0.788	0.544	0.548	0.507
NCI-H522	0.716	0.796	0.752	0.895	0.78	0.964	0.845	1.02	1.17	0.945										
NCI-H596	0.842	0.848	0.861	0.901	0.803						1.01	1.06	1.01	0.996	0.805	1.21	1.07	1.22	1.05	1.06
NCI-H650	1.04	1.03	0.852	0.924	0.836	0.31	0.342	0.291	0.35	0.295						0.853	0.84	0.679	0.656	0.494
NCI-H661	0.688	0.596	0.579	0.613	0.637	0.428	0.432	0.491	0.507	0.493						0.552	0.592	0.555	0.494	0.495
NCI-H1299											1.09	1.03	1.04	1.02	0.948	1.13	0.878	0.984	0.878	0.839
NCI-H1563																1.25	1.16	1.26	1.29	1.4
NCI-H1648	0.417	0.447	0.476	0.477	0.336	0.251	0.264	0.263	0.313	0.248										
NCI-H1650	0.79	0.627	0.552	0.533	0.479	0.352	0.39	0.376	0.417	0.504	1.25	1.05	1.27	1.01	0.825					
NCI-H1703											0.89	0.945	0.898	0.635	0.691	0.56	0.628	0.553	0.556	0.473
NCI-H2170	0.945	0.971	0.925	0.894	0.915	0.399	0.394	0.393	0.406	0.393	0.654	0.586	0.572	0.533	0.63					
NCI-H2342	0.808	0.797	0.93	0.903	0.919	0.536	0.507	0.578	0.524	0.61										
SW 900	0.696	0.754	0.777	0.639	0.609	0.446	0.462	0.479	0.479	0.466										
